Laboratory results reported in PubChem BioAssay (NCI).
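Compound exposure: 48 hours, 5 concentrations, 96-well plates. At the GI50, growth is halved. TGI marks complete inhibition of growth.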

Experiments:
Assay in all cases: NCI-60 cell line screen, 48 h
[1] = system: RPMI-8226 leukemia
[2] = system: NCI-H522 lung
[3] = system: SF-295 CNS
[4] = system: NCI-H460 lung
[5] = system: U251 CNS
[6] = system: MDA-MB-231 breast
[7] = system: NCI-H23 lung
[8] = system: 786-0 renal
[9] = system: RXF 393 renal
[10] = system: MALME-3M melanoma

Structure (SMILES) | GI50 [1] | TGI [1] | GI50 [2] | TGI [2] | GI50 [3] | TGI [3] | GI50 [4] | TGI [4] | GI50 [5] | TGI [5] | GI50 [6] | TGI [6] | GI50 [7] | TGI [7] | GI50 [8] | TGI [8] | GI50 [9] | TGI [9] | GI50 [10] | TGI [10]
O=C1C=Cc2cc3ccccc3c3cccc1c23 | 2.62 µM | 8.5 µM | 8.6 µM | > 100 µM | 7.65 µM | 35.8 µM | 3.37 µM | 11.6 µM | 4.38 µM | 43.1 µM | 4.72 µM | 29 µM | 2.57 µM | 9.95 µM | 4.29 µM | > 100 µM | 2.71 µM | 8.62 µM | – | –
N=C(N)c1ccc(-c2ccc(-c3ccco3)o2)cc1 | 2.51 µM | 7.52 µM | 3.73 µM | 14.6 µM | – | – | 2.43 µM | 6.6 µM | 2.92 µM | 11.8 µM | 2.75 µM | 7.75 µM | 11 µM | 26.6 µM | 3.93 µM | 17.1 µM | 4.68 µM | 18.4 µM | 2.15 µM | 4.12 µM
COc1cc(C2CC(c3ccc(C)cc3)=NN2C(C)=O)ccc1Oc1ccnc2cc(Cl)ccc12 (stereo not given) | > 100 µM | > 100 µM | > 100 µM | > 100 µM | 2.52 µM | > 100 µM | – | – | 1.41 µM | > 100 µM | 11.3 µM | > 100 µM | 2.71 µM | > 100 µM | 1.17 µM | 10.4 µM | 3.57 µM | > 100 µM | > 100 µM | > 100 µM
CCSc1sc(-c2ccc(C)cc2)nc1[P+](c1ccccc1)(c1ccccc1)c1ccccc1 | 0.13 µM | 0.477 µM | 0.304 µM | 1.23 µM | 0.235 µM | 0.736 µM | 0.306 µM | 1.12 µM | – | – | 0.259 µM | 1.14 µM | 0.273 µM | 0.881 µM | 0.375 µM | 1.57 µM | 0.255 µM | 1.23 µM | 0.288 µM | 1.06 µM
COc1cc2c(cc1OC)[C@@H]1[C@H](C2=O)c2ccc([N+](=O)[O-])cc2C(=O)N1CCCBr | 0.145 µM | 1.87 µM | 0.574 µM | 29.4 µM | – | – | – | – | 0.134 µM | 1.39 µM | 1.45 µM | 6.61 µM | < 0.01 µM | 1.8 µM | < 0.0489 µM | 0.285 µM | 0.285 µM | 2.22 µM | 0.367 µM | 3.09 µM
COc1ccc(C2CC(c3cccc(Nc4ccnc5cc(Cl)ccc45)c3)=NN2c2ccccc2)cc1 (stereo not given) | 1.27 µM | 22.8 µM | 0.952 µM | 13.8 µM | 1.62 µM | 16.4 µM | 0.418 µM | 12.2 µM | – | – | 1.31 µM | 29.2 µM | 8.78 µM | 59.7 µM | 3.95 µM | > 100 µM | 8.91 µM | 49.7 µM | 10.7 µM | 42.7 µM
OCCOCn1nc(-c2ccccc2)nc1-c1cnccn1 | – | > 100 µM | – | > 100 µM | – | > 100 µM | – | > 100 µM | – | > 100 µM | – | > 100 µM | – | > 100 µM | – | > 100 µM | – | > 100 µM | – | –
